ChEMBL document CHEMBL4138123, “Design, synthesis and biological evaluation of novel pyrazolochalcones as potential modulators of PI3K/Akt/mTOR pathway and inducers of apoptosis in breast cancer cells” (Eur J Med Chem, 2017)

Columns and labels:
Format in all cases: functional
[1] = system: 786-0; assay: Cytotoxicity against human 786-0 cells assessed as growth inhibition after 48 hrs by sulforhodamine B assay; details: 786-0, 48 h
[2] = system: NCI-H322M; assay: Cytotoxicity against human NCI-H322M cells assessed as growth inhibition after 48 hrs by sulforhodamine B assay
[3] = system: OVCAR-5; assay: Cytotoxicity against human OVCAR5 cells assessed as growth inhibition after 48 hrs by sulforhodamine B assay; details: OVCAR-5, 48 h
[4] = system: OVCAR-4; assay: Cytotoxicity against human OVCAR4 cells assessed as growth inhibition after 48 hrs by sulforhodamine B assay; details: OVCAR-4, 48 h
[5] = system: OVCAR-8; assay: Cytotoxicity against human OVCAR8 cells assessed as growth inhibition after 48 hrs by sulforhodamine B assay; details: OVCAR-8, 48 h
[6] = system: Malme-3M; assay: Cytotoxicity against human MALME-3M cells assessed as growth inhibition after 48 hrs by sulforhodamine B assay
[7] = system: HCT-116; assay: Cytotoxicity against human HCT116 cells assessed as growth inhibition after 48 hrs by sulforhodamine B assay; details: HCT-116, 48 h
[8] = system: MCF7; assay: Cytotoxicity against human MCF7 cells assessed as cell growth at 0.1 uM after 48 hrs by sulforhodamine B assay relative to control; details: MCF7, 48 h, read-out: Activity
[9] = system: A498; assay: Cytotoxicity against human A498 cells assessed as cell growth at 0.1 uM after 48 hrs by sulforhodamine B assay relative to control; details: A498, 48 h, read-out: Activity
[10] = system: UACC-257; assay: Cytotoxicity against human UACC257 cells assessed as cell growth at 100 uM after 48 hrs by sulforhodamine B assay relative to control; details: UACC-257, 48 h, read-out: Activity
[11] = system: U-251; assay: Cytotoxicity against human U251 cells assessed as cell growth at 10 uM after 48 hrs by sulforhodamine B assay relative to control; details: U-251, 48 h, read-out: Activity
[12] = system: UO-31; assay: Cytotoxicity against human UO31 cells assessed as cell growth at 0.01 uM after 48 hrs by sulforhodamine B assay relative to control; details: UO-31, 48 h, read-out: Activity
[13] = system: HT-29; assay: Cytotoxicity against human HT-29 cells assessed as cell growth at 0.1 uM after 48 hrs by sulforhodamine B assay relative to control; details: HT-29, 48 h, read-out: Activity
[14] = system: SR; assay: Cytotoxicity against human SR cells assessed as cell growth at 100 uM after 48 hrs by sulforhodamine B assay relative to control; details: read-out: Activity
[15] = system: SF-539; assay: Cytotoxicity against human SF539 cells assessed as cell growth at 100 uM after 48 hrs by sulforhodamine B assay relative to control; details: SF-539, 48 h, read-out: Activity
[16] = system: MDA-MB-231; assay: Cytotoxicity against human MDA-MB-231 cells assessed as cell growth at 0.01 uM after 48 hrs by sulforhodamine B assay relative to control; details: MDA-MB-231, 48 h, read-out: Activity
[17] = system: HT-29; assay: Cytotoxicity against human HT-29 cells assessed as cell growth at 1 uM after 48 hrs by sulforhodamine B assay relative to control; details: HT-29, 48 h, read-out: Activity
[18] = system: OVCAR-8; assay: Cytotoxicity against human OVCAR8 cells assessed as cell growth at 1 uM after 48 hrs by sulforhodamine B assay relative to control; details: OVCAR-8, 48 h, read-out: Activity
[19] = system: HT-29; assay: Cytotoxicity against human HT-29 cells assessed as cell growth at 10 uM after 48 hrs by sulforhodamine B assay relative to control; details: HT-29, 48 h, read-out: Activity
[20] = system: RXF 393; assay: Cytotoxicity against human RXF393 cells assessed as cell growth at 100 uM after 48 hrs by sulforhodamine B assay relative to control; details: RXF 393, 48 h, read-out: Activity
[21] = system: MCF7; assay: Cytotoxicity against human MCF7 cells assessed as cell growth at 1 uM after 48 hrs by sulforhodamine B assay relative to control; details: MCF7, 48 h, read-out: Activity
[22] = system: SNB-19; assay: Cytotoxicity against human SNB19 cells assessed as cell growth at 100 uM after 48 hrs by sulforhodamine B assay relative to control; details: SNB-19, 48 h, read-out: Activity
[23] = system: HCT-116; assay: Cytotoxicity against human HCT116 cells assessed as cell growth at 1 uM after 48 hrs by sulforhodamine B assay relative to control; details: HCT-116, 48 h, read-out: Activity
[24] = system: SK-MEL-28; assay: Cytotoxicity against human SK-MEL-28 cells assessed as cell growth at 0.1 uM after 48 hrs by sulforhodamine B assay relative to control; details: SK-MEL-28, 48 h, read-out: Activity
[25] = system: OVCAR-3; assay: Cytotoxicity against human OVCAR3 cells assessed as cell growth at 10 uM after 48 hrs by sulforhodamine B assay relative to control; details: OVCAR-3, 48 h, read-out: Activity
[26] = system: RXF 393; assay: Cytotoxicity against human RXF393 cells assessed as cell growth at 0.1 uM after 48 hrs by sulforhodamine B assay relative to control; details: RXF 393, 48 h, read-out: Activity
[27] = system: UO-31; assay: Cytotoxicity against human UO31 cells assessed as cell growth at 1 uM after 48 hrs by sulforhodamine B assay relative to control; details: UO-31, 48 h, read-out: Activity
[28] = system: SW-620; assay: Cytotoxicity against human SW620 cells assessed as cell growth at 0.01 uM after 48 hrs by sulforhodamine B assay relative to control; details: SW-620, 48 h, read-out: Activity
[29] = system: OVCAR-5; assay: Cytotoxicity against human OVCAR5 cells assessed as cell growth at 0.01 uM after 48 hrs by sulforhodamine B assay relative to control; details: OVCAR-5, 48 h, read-out: Activity
[30] = system: SF-268; assay: Cytotoxicity against human SF268 cells assessed as cell growth at 0.1 uM after 48 hrs by sulforhodamine B assay relative to control; details: SF-268, 48 h, read-out: Activity
[31] = system: COLO 205; assay: Cytotoxicity against human COLO205 cells assessed as cell growth at 1 uM after 48 hrs by sulforhodamine B assay relative to control; details: COLO 205, 48 h, read-out: Activity
[32] = system: OVCAR-8; assay: Cytotoxicity against human OVCAR8 cells assessed as cell growth at 0.01 uM after 48 hrs by sulforhodamine B assay relative to control; details: OVCAR-8, 48 h, read-out: Activity
[33] = system: K562; assay: Cytotoxicity against human K562 cells assessed as cell growth at 0.01 uM after 48 hrs by sulforhodamine B assay relative to control; details: K562, 48 h, read-out: Activity
[34] = system: SF-268; assay: Cytotoxicity against human SF268 cells assessed as cell growth at 0.01 uM after 48 hrs by sulforhodamine B assay relative to control; details: SF-268, 48 h, read-out: Activity
[35] = system: COLO 205; assay: Cytotoxicity against human COLO205 cells assessed as cell growth at 100 uM after 48 hrs by sulforhodamine B assay relative to control; details: COLO 205, 48 h, read-out: Activity
[36] = system: SK-OV-3; assay: Cytotoxicity against human SKOV3 cells assessed as cell growth at 100 uM after 48 hrs by sulforhodamine B assay relative to control; details: SK-OV-3, 48 h, read-out: Activity

## COc1ccc(-c2cc(/C=C/C(=O)c3ccc4c(c3)OCO4)[nH]n2)cc1OC
[1]
  GI50: 1810 nM
[2]
  GI50: 2670 nM
[3]
  GI50: 1760 nM
[4]
  GI50: 1920 nM
[5]
  GI50: 2630 nM
[6]
  GI50: 2590 nM
[7]
  GI50: 360 nM

## COc1cc(-c2cc(/C=C/C(=O)c3ccc(N)cc3)[nH]n2)cc(OC)c1OC
[1]
  GI50: 2040 nM
  LC50: 27600 nM
  TGI: 6490 nM
[8]
  growth at 0.1 µM: 91%
[9]
  growth at 0.1 µM: 85%
[10]
  growth at 100 µM: -93%
[11]
  growth at 10 µM: -96%
[12]
  growth at 0.01 µM: 91%
[13]
  growth at 0.1 µM: 102%
[14]
  growth at 100 µM: -13%
[15]
  growth at 100 µM: -99%
[16]
  growth at 0.01 µM: 109%
[17]
  growth at 1 µM: 82%
[2]
  GI50: 2230 nM
  TGI: 5590 nM
[2]; read-out: LC50 (the source's name)
  CC50: 20900 nM
[18]
  growth at 1 µM: 81%
[3]
  GI50: 1780 nM
  LC50: 7910 nM
  TGI: 3750 nM
[19]
  growth at 10 µM: -38%
[20]
  growth at 100 µM: -86%
[21]
  growth at 1 µM: 66%
[22]
  growth at 100 µM: -94%
[23]
  growth at 1 µM: 56%
[4]
  GI50: 1400 nM
  LC50: 23700 nM
  TGI: 5440 nM
[24]
  growth at 0.1 µM: 95%
[25]
  growth at 10 µM: -71%
[26]
  growth at 0.1 µM: 91%
[5]
  GI50: 2390 nM
  LC50: 34900 nM
  TGI: 9760 nM
[27]
  growth at 1 µM: 71%
[6]
  GI50: 2050 nM
  LC50: 14400 nM
  TGI: 4710 nM
[7]
  GI50: 1100 nM
  LC50: 6190 nM
  TGI: 2610 nM
[28]
  growth at 0.01 µM: 95%
[29]
  growth at 0.01 µM: 90%
[30]
  growth at 0.1 µM: 106%
[31]
  growth at 1 µM: 92%
[32]
  growth at 0.01 µM: 100%
[33]
  growth at 0.01 µM: 100%
[34]
  growth at 0.01 µM: 99%
[35]
  growth at 100 µM: -78%
[36]
  growth at 100 µM: -98%
